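How tested: cells in 96-well plates exposed to compound for 48 hours at five concentrations. At the GI50, growth is halved. The concentration for full growth arrest is given as TGI.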
How the values were obtained:
Assay in all cases: NCI anticancer screen, dose series, 48 h
RXF 393 renal = tested on: RXF 393 renal
MALME-3M melanoma = tested on: MALME-3M melanoma
MDA-MB-231 breast = tested on: MDA-MB-231 breast
COLO 205 colon = tested on: COLO 205 colon
SNB-75 CNS = tested on: SNB-75 CNS
SF-268 CNS = tested on: SF-268 CNS
MDA-MB-435 = tested on: MDA-MB-435
RPMI-8226 leukemia = tested on: RPMI-8226 leukemia
SK-MEL-2 melanoma = tested on: SK-MEL-2 melanoma
HCC-2998 colon = tested on: HCC-2998 colon
SW-620 colon = tested on: SW-620 colon
SK-MEL-28 melanoma = tested on: SK-MEL-28 melanoma
NCI-H460 lung = tested on: NCI-H460 lung
ACHN renal = tested on: ACHN renal
KM12 colon = tested on: KM12 colon
NCI-H23 lung = tested on: NCI-H23 lung
OVCAR-4 ovarian = tested on: OVCAR-4 ovarian
MCF7 breast = tested on: MCF7 breast
A498 renal = tested on: A498 renal
OVCAR-8 ovarian = tested on: OVCAR-8 ovarian
CCRF-CEM leukemia = tested on: CCRF-CEM leukemia
HOP-62 NSCLC = tested on: HOP-62 NSCLC
A549 NSCLC = tested on: A549 NSCLC
HT29 colon = tested on: HT29 colon
OVCAR-5 ovarian = tested on: OVCAR-5 ovarian
NCI/ADR-RES ovarian = tested on: NCI/ADR-RES ovarian
UO-31 renal = tested on: UO-31 renal
SF-539 CNS = tested on: SF-539 CNS
SF-295 CNS = tested on: SF-295 CNS
M14 melanoma = tested on: M14 melanoma
DU-145 prostate = tested on: DU-145 prostate
786-0 renal = tested on: 786-0 renal
HOP-92 NSCLC = tested on: HOP-92 NSCLC
T-47D breast = tested on: T-47D breast
LOX IMVI melanoma = tested on: LOX IMVI melanoma
HS 578T breast = tested on: HS 578T breast
K-562 leukemia = tested on: K-562 leukemia
NCI-H226 lung = tested on: NCI-H226 lung
HCT-15 colon = tested on: HCT-15 colon
SK-MEL-5 melanoma = tested on: SK-MEL-5 melanoma
SR leukemia = tested on: SR leukemia
TK-10 renal = tested on: TK-10 renal
MOLT-4 leukemia = tested on: MOLT-4 leukemia
SN12C renal = tested on: SN12C renal
CAKI-1 renal = tested on: CAKI-1 renal
U251 CNS = tested on: U251 CNS
BT-549 breast = tested on: BT-549 breast
PC-3 prostate = tested on: PC-3 prostate
HCT-116 colon = tested on: HCT-116 colon
UACC-62 melanoma = tested on: UACC-62 melanoma
SNB-19 CNS = tested on: SNB-19 CNS
UACC-257 melanoma = tested on: UACC-257 melanoma
SK-OV-3 ovarian = tested on: SK-OV-3 ovarian
IGROV1 ovarian = tested on: IGROV1 ovarian
NCI-H522 lung = tested on: NCI-H522 lung

C[C@]12CC[C@@H]3c4ccc(O)cc4CC[C@H]3[C@@H]1CC[C@@H]2NS(=O)(=O)c1cccc(Cl)c1
GI50 (RXF 393 renal): 1.91 µM
TGI (RXF 393 renal): 4.9 µM
GI50 (MALME-3M melanoma): 2.36 µM
TGI (MALME-3M melanoma): 6.75 µM
GI50 (MDA-MB-231 breast): 2.44 µM
TGI (MDA-MB-231 breast): 7.75 µM
GI50 (COLO 205 colon): 1.81 µM
TGI (COLO 205 colon): 3.31 µM
GI50 (SNB-75 CNS): 2.25 µM
TGI (SNB-75 CNS): 9.01 µM
GI50 (SF-268 CNS): 3.23 µM
TGI (SF-268 CNS): 13.6 µM
GI50 (MDA-MB-435): 2.63 µM
TGI (MDA-MB-435): 8.7 µM
GI50 (RPMI-8226 leukemia): 2.97 µM
TGI (RPMI-8226 leukemia): 11.3 µM
GI50 (SK-MEL-2 melanoma): 2.46 µM
TGI (SK-MEL-2 melanoma): 5.73 µM
GI50 (HCC-2998 colon): 3.45 µM
TGI (HCC-2998 colon): 10.4 µM
GI50 (SW-620 colon): 3.91 µM
TGI (SW-620 colon): 15 µM
GI50 (SK-MEL-28 melanoma): 2.24 µM
TGI (SK-MEL-28 melanoma): 5.93 µM
GI50 (NCI-H460 lung): 2.24 µM
TGI (NCI-H460 lung): 5.02 µM
GI50 (ACHN renal): 2.58 µM
TGI (ACHN renal): 7.69 µM
GI50 (KM12 colon): 1.96 µM
TGI (KM12 colon): 4.24 µM
GI50 (NCI-H23 lung): 2.72 µM
TGI (NCI-H23 lung): 10.8 µM
GI50 (OVCAR-4 ovarian): 2.2 µM
TGI (OVCAR-4 ovarian): 10.5 µM
GI50 (MCF7 breast): 2.92 µM
TGI (MCF7 breast): 7.46 µM
GI50 (A498 renal): 1.56 µM
TGI (A498 renal): 5.19 µM
GI50 (OVCAR-8 ovarian): 3.27 µM
TGI (OVCAR-8 ovarian): 13.3 µM
GI50 (CCRF-CEM leukemia): 2.94 µM
TGI (CCRF-CEM leukemia): 14.4 µM
GI50 (HOP-62 NSCLC): 4.46 µM
TGI (HOP-62 NSCLC): 15.3 µM
GI50 (A549 NSCLC): 3.22 µM
TGI (A549 NSCLC): 12.7 µM
GI50 (HT29 colon): 2.47 µM
TGI (HT29 colon): 6.06 µM
GI50 (OVCAR-5 ovarian): 2.59 µM
TGI (OVCAR-5 ovarian): 8.54 µM
GI50 (NCI/ADR-RES ovarian): 2.39 µM
TGI (NCI/ADR-RES ovarian): 8.57 µM
GI50 (UO-31 renal): 2.01 µM
TGI (UO-31 renal): 8.75 µM
GI50 (SF-539 CNS): 1.76 µM
TGI (SF-539 CNS): 3.45 µM
GI50 (SF-295 CNS): 3.1 µM
TGI (SF-295 CNS): 10.8 µM
GI50 (M14 melanoma): 2.34 µM
TGI (M14 melanoma): 6.35 µM
GI50 (DU-145 prostate): 4.17 µM
TGI (DU-145 prostate): 14.9 µM
GI50 (786-0 renal): 2.47 µM
TGI (786-0 renal): 6.13 µM
GI50 (HOP-92 NSCLC): 2.08 µM
TGI (HOP-92 NSCLC): 5.69 µM
GI50 (T-47D breast): 3.49 µM
TGI (T-47D breast): 11.3 µM
GI50 (LOX IMVI melanoma): 1.75 µM
TGI (LOX IMVI melanoma): 3.4 µM
GI50 (HS 578T breast): 3.09 µM
TGI (HS 578T breast): 13.1 µM
GI50 (K-562 leukemia): 3.14 µM
TGI (K-562 leukemia): 11.8 µM
GI50 (NCI-H226 lung): 1.9 µM
TGI (NCI-H226 lung): 4.61 µM
GI50 (HCT-15 colon): 2.28 µM
TGI (HCT-15 colon): 7.2 µM
GI50 (SK-MEL-5 melanoma): 1.72 µM
TGI (SK-MEL-5 melanoma): 3.22 µM
GI50 (SR leukemia): 2.15 µM
TGI (SR leukemia): 6.6 µM
GI50 (TK-10 renal): 3.46 µM
TGI (TK-10 renal): 11.2 µM
GI50 (MOLT-4 leukemia): 2.14 µM
TGI (MOLT-4 leukemia): 8.97 µM
GI50 (SN12C renal): 1.8 µM
TGI (SN12C renal): 3.8 µM
GI50 (CAKI-1 renal): 2.97 µM
TGI (CAKI-1 renal): 10.6 µM
GI50 (U251 CNS): 2.26 µM
TGI (U251 CNS): 5.48 µM
GI50 (BT-549 breast): 2.15 µM
TGI (BT-549 breast): 5.25 µM
GI50 (PC-3 prostate): 2.98 µM
TGI (PC-3 prostate): 11.9 µM
GI50 (HCT-116 colon): 1.68 µM
TGI (HCT-116 colon): 3.11 µM
GI50 (UACC-62 melanoma): 1.86 µM
TGI (UACC-62 melanoma): 4.84 µM
GI50 (SNB-19 CNS): 3.87 µM
TGI (SNB-19 CNS): 14.4 µM
GI50 (UACC-257 melanoma): 2.9 µM
TGI (UACC-257 melanoma): 12.3 µM
GI50 (SK-OV-3 ovarian): 3.79 µM
TGI (SK-OV-3 ovarian): 12.6 µM
GI50 (IGROV1 ovarian): 4.23 µM
TGI (IGROV1 ovarian): 16.8 µM
GI50 (NCI-H522 lung): 1.91 µM
TGI (NCI-H522 lung): 7.15 µM

From PubChem BioAssay (NCI)
